pKd: −log10 of the molar value.
Key:
[1] = molecular target: T1, r-LvMFBP (XP_027209752.1; methyl farnesoate-binding protein, MFBP); test: isothermal titration calorimetry; set-up: species or system Penaeus vannamei; conditions: 20 uM protein, 200 uM ligand, 20 mM Tris-HCl pH 7.5, 30 C
T1 construct: recombinant, E. coli BL21-T1R, HisTALON (His-tag) purified; precursor 215 aa with 16 aa signal peptide, mature 199 aa

[2] = molecular target: T1, r-LvMFBP (XP_027209752.1; methyl farnesoate-binding protein, MFBP); test: isothermal titration calorimetry (also surface plasmon resonance); set-up: species or system Penaeus vannamei; conditions: ITC: 20 uM protein, 200 uM ligand, 20 mM Tris-HCl pH 7.5, 30 C; SPR: immobilized protein, PBST pH 7.4

pKd [2]	Compound	pKd [1]
	CC(C)=CCC/C(C)=C/CC/C(C)=C/C(=O)O [FA, farnesoic acid]	3.20
	COC(C)(C)CCCC(C)C/C=C/C(C)=C/C(=O)OC(C)C (stereo not drawn) [Met, methoprene]	4.46
6.18	COC(=O)/C=C(\C)CC/C=C(\C)CCC=C(C)C [MF, methyl farnesoate]	
